From publication PMC6594156 (Phytotherapy research : PTR, 2015)

Key:
[1] = biological target: T1, UGT2B7 (Homo sapiens, UniProt P16662); test: recombinant UGT 4-MU glucuronidation, HPLC, single concentration […]; assay type: biochemical; conditions: read-out: 2B7
T1 sequence (P16662 24-529): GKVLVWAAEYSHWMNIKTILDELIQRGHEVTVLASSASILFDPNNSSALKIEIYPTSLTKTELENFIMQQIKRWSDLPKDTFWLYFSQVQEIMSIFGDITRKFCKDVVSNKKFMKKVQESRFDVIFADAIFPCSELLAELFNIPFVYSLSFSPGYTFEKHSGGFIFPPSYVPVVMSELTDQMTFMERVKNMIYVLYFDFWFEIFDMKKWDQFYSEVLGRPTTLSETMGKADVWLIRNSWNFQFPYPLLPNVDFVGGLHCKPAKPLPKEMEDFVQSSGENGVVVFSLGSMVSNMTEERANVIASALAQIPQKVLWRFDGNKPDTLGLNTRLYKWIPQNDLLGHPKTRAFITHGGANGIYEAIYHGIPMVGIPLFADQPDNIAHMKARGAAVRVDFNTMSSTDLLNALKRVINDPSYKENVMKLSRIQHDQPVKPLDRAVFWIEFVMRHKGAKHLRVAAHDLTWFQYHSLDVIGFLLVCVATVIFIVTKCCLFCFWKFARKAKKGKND

[2] = biological target: T2, UGT1A3 (Homo sapiens, UniProt P35503); test: as above; assay type: biochemical; conditions: read-out: 1A3
T2 sequence (P35503 29-534): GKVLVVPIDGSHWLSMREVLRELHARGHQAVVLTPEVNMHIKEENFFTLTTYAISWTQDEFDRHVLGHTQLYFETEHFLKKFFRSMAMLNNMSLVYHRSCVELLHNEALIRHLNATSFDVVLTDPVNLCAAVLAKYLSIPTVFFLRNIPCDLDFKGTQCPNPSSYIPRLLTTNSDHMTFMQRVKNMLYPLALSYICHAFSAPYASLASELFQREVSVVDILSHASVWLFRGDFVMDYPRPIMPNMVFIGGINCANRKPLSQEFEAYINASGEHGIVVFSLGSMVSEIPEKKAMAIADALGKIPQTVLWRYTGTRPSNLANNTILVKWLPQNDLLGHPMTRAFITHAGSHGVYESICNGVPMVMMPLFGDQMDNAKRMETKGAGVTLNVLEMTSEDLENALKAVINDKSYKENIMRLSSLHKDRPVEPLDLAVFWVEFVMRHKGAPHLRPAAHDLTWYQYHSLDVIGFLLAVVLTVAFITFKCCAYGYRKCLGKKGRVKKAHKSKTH

Row | SMILES | activity at 100 µM [1] | activity at 100 µM [2]
1 | COc1cc2c(c(O)c1OC)-c1c(cc(OC)c(OC)c1OC)C[C@@H](C)[C@@H](C)C2 [schisanhenol] | 7.9% | 
2 | COc1cc2c(c(OC)c1OC)-c1c(cc(OC)c(OC)c1OC)C[C@H](C)[C@H](C)C2 [schisandrin A] |  | 0%
